Experimental data reported in patent publication US20220324835A1 (Nurix Therapeutics, Inc., priority 2018, published 2022).

Key:
[1] = target: T1, Cbl-b (Homo sapiens, UniProt Q13191); assay: Cbl-b activity assay (Cbl-b inhibition assay), TR-FRET of Cbl-b interaction with UbcH5B-Ub; format: biochemical; details: assay buffer with 100 mM NaCl, 60 nM Src kinase; read-out: Cbl-b activity IC50
Summary of the method: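 TR-FRET readout of Cbl-b binding to Bodipy-fluorescein N-terminally labeled Ub conjugated to UbcH5B C85K, measured with compound present. After compound incubation, 60 nM Src kinase with 1 mM ATP and 5 mM MgCl2 (final) was added for 1.5 h, then a further 1 h incubation; asterisked values used 50 mM NaCl buffer and 30 nM Src.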

[2] = system: T-cell; assay: CD25 cell surface staining on T-cells stimulated with anti-CD3 antibody alone (Biological Example 2); format: cell-based; details: primary human total T-cells, baseline = anti-CD3/anti-CD28 stimulated cells without inhibitor, read-out: CD25 staining, Anti-CD3 stimulation, fold change over baseline; for fold induction at 1 µM: 1 μM compound; for fold induction at 8 µM: 8 μM compound
[3] = target: T1, Cbl-b; assay: Cbl-b inhibition assay (Cbl-b activity assay, FRET, Biological Example 1; 100 mM NaCl, 60 nM Src kinase); format: biochemical; details: upper bound stated in text lists; read-out: IC50 values in the Cbl-b inhibition assay of Biological Example 1
Summary of the method: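 Steps: Src kinase phosphorylates N-terminal biotinylated Avi-tagged Cbl-b; phosphorylated Cbl-b binds Bodipy-fluorescein ubiquitin-loaded UbcH5B; streptavidin-terbium on Cbl-b sits close to the fluorescein label, producing FRET. Inhibitors block UbcH5B-Ub binding.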

[4] = system: T-cell; assay: IL-2 secretion from T-cells co-stimulated with anti-CD3 and anti-CD28 antibody (Biological Example 2); format: cell-based, human; details: Homo sapiens, T-cell, primary human total T-cells, baseline = anti-CD3/anti-CD28 stimulated cells without inhibitor, read-out: IL-2 secretion, Anti-CD3/Anti-CD28 stimulation, fold change over baseline; for fold induction at 0.3 µM: 0.3 μM compound; for fold induction at 1 µM: 1 μM compound; for fold induction at 4 µM: 4 μM compound
Summary of the method: (§1)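 No assay protocol given; T-cells stimulated with anti-CD3 alone or anti-CD3 plus anti-CD28, with or without Cbl-b inhibitor. Activation read as IL-2 secretion or CD25 surface staining, expressed as fold over baseline from uninhibited cells […].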

[5] = system: T-cell; assay: CD25 cell surface staining on T-cells co-stimulated with anti-CD3 and anti-CD28 antibody (Biological Example 2); format: cell-based, human; details: Homo sapiens, T-cell, primary human total T-cells, baseline = anti-CD3/anti-CD28 stimulated cells without inhibitor, read-out: CD25 staining, Anti-CD3/Anti-CD28 stimulation, fold change over baseline; for fold induction at 0.3 µM: 0.3 μM compound; for fold induction at 1 µM: 1 μM compound; for fold induction at 4 µM: 4 μM compound
Summary of the method: as §1

[6] = system: T-cell; assay: IL-2 secretion from T-cells stimulated with anti-CD3 antibody alone (Biological Example 2); format: cell-based; details: primary human total T-cells, read-out: IL-2 secretion, Anti-CD3 stimulation, fold change over baseline; for fold induction at 1 µM: 1 μM compound; for fold induction at 8 µM: 8 μM compound
[7] = target: Cbl-b (residues 36-427) (Homo sapiens, UniProt Q13191); assay: Cbl-b binding assay (SPR, Biacore T200); details: 20° C., 1:1 binding model
Summary of the method: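 Affinities derived from global 1:1 steady-state or kinetic fits of double-referenced, solvent-corrected SPR data, 20 °C, NeutrAvidin-capture chip. Compound series (top 100 or 50 μM, 8–10 points) injected 50 s, 90–180 s dissociation. Asterisked values used 50 mM instead of 100 mM NaCl and 30 nM Src kinase.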

T1 sequence (Q13191 36-427): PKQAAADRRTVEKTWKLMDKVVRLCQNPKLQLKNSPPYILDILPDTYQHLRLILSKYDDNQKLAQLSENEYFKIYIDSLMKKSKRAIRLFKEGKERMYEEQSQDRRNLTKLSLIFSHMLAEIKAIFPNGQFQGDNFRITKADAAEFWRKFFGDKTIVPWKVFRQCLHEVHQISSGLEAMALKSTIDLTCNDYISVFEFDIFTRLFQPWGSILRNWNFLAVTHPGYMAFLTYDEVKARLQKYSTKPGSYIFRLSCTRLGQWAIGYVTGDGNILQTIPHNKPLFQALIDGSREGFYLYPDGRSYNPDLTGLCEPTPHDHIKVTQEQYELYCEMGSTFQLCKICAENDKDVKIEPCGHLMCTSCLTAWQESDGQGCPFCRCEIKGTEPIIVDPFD
Sequence of Cbl-b (residues 36-427) (Q13191 36-427): as above

Structure (SMILES)	IC50 [1] [µM]	fold induction at 1 µM [2]	fold induction at 8 µM [2]	IC50 [3] [µM]	fold induction at 0.3 µM [4]	fold induction at 1 µM [4]	fold induction at 4 µM [4]	fold induction at 0.3 µM [5]	fold induction at 1 µM [5]	fold induction at 4 µM [5]	fold induction at 1 µM [6]	fold induction at 8 µM [6]	Kd [7] [µM]
C[C@H](Cc1nncn1C)c1cccc(N2Cc3c(cc(CN4CCC(F)(F)C4)cc3C(F)(F)F)C2=O)c1 [Compound 396, (R)-6-((3,3-difluoropyrrolidin-1-yl)methyl)-2-(3-(1-(4-methyl-4H-1,2,4-triazol-3-yl)propan-2-yl)phenyl)-4-(trifluoromethyl)isoindolin-1-one]	< 0.1	> 1	> 1	≤ 0.1	2.51 to 5	5 to 7.5	> 7.5	1.01 to 1.3	1.01 to 1.3	1.31 to 1.5	0.151 to 0.2	> 0.201	< 0.1
C[C@H](Cc1nncn1C)c1cccc(N2Cc3c(cc(CN4CC[C@@H](F)C4)cc3C(F)(F)F)C2=O)c1 [Compound 400, 6-(((R)-3-fluoropyrrolidin-1-yl)methyl)-2-(3-((R)-1-(4-methyl-4H-1,2,4-triazol-3-yl)propan-2-yl)phenyl)-4-(trifluoromethyl)isoindolin-1-one]	< 0.1	> 1	> 1	≤ 0.1	5 to 7.5	> 7.5	> 7.5	1.01 to 1.3	1.01 to 1.3	1.31 to 1.5	> 0.201	> 0.201	< 0.1
C[C@H](Cc1nncn1C)c1cccc(N2Cc3c(cc(CN4CC(F)C4)cc3C(F)(F)F)C2=O)c1 [Compound 401, (R)-6-((3-fluoroazetidin-1-yl)methyl)-2-(3-(1-(4-methyl-4H-1,2,4-triazol-3-yl)propan-2-yl)phenyl)-4-(trifluoromethyl)isoindolin-1-one]	< 0.1	> 1	> 1	≤ 0.1	2.51 to 5	> 7.5	> 7.5	1.01 to 1.3	1.01 to 1.3	1.31 to 1.5	0.151 to 0.2	> 0.201	< 0.1
C[C@H](Cc1nncn1C)c1cccc(N2Cc3c(cc(CN4CC(F)(F)C4)cc3C(F)(F)F)C2=O)c1 [Compound 402, (R)-6-((3,3-difluoroazetidin-1-yl)methyl)-2-(3-(1-(4-methyl-4H-1,2,4-triazol-3-yl)propan-2-yl)phenyl)-4-(trifluoromethyl)isoindolin-1-one]	< 0.1	> 1	> 1	≤ 0.1	5 to 7.5	> 7.5	> 7.5	1.01 to 1.3	1.31 to 1.5	1.31 to 1.5	0.151 to 0.2	> 0.201	< 0.1
C[C@H](Cc1nncn1C)c1cccc(N2Cc3c(cc([C@@H](C)N4CC[C@H](F)C4)cc3C(F)(F)F)C2=O)c1 [Compound 403, 6-((R)-1-((S)-3-fluoropyrrolidin-1-yl)ethyl)-2-(3-((R)-1-(4-methyl-4H-1,2,4-triazol-3-yl)propan-2-yl)phenyl)-4-(trifluoromethyl)isoindolin-1-one]	< 0.1	> 1	> 1	≤ 0.1	5 to 7.5	> 7.5	> 7.5	1.01 to 1.3	1.01 to 1.3	1.31 to 1.5	0.151 to 0.2	> 0.201	< 0.1
Cc1conc1C[C@@H](C)c1cccc(N2Cc3c(cc(C(=O)N4CC[C@H](O)C4)cc3C(F)(F)F)C2=O)c1 [Compound 407, 6-((S)-3-Hydroxypyrrolidine-1-carbonyl)-2-(3-((R)-1-(4-methylisoxazol-3-yl)propan-2-yl)phenyl)-4-(trifluoromethyl)isoindolin-1-one]	< 0.1	> 1	> 1	≤ 0.1	2.51 to 5	5 to 7.5	> 7.5	1.01 to 1.3	1.01 to 1.3	1.01 to 1.3	0.101 to 0.15	> 0.201	< 0.1
Cn1cnnc1[C@@H]1C[C@@H]1c1cccc(N2Cc3c(cc(C#N)cc3C(F)(F)F)C2=O)c1 [Compound 408, 2-(3-((1S,2R)-2-(4-methyl-4H-1,2,4-triazol-3-yl)cyclopropyl)phenyl)-3-oxo-7-(trifluoromethyl)isoindoline-5-carbonitrile]	0.1 to 0.3	0.601 to 0.8	0.801 to 1	≤ 0.3	1.01 to 2.5	1.01 to 2.5	2.51 to 5	1.01 to 1.3	1.01 to 1.3	1.01 to 1.3	< 0.05	0.101 to 0.15	0.1 to 0.3
Cn1cnnc1CC1(c2cccc(N3Cc4c(cc(CN5CCC(F)(F)C5)cc4C(F)(F)F)C3=O)c2)COC1 [Compound 411, 6-((3,3-difluoropyrrolidin-1-yl)methyl)-2-(3-(3-((4-methyl-4H-1,2,4-triazol-3-yl)methyl)oxetan-3-yl)phenyl)-4-(trifluoromethyl)isoindolin-1-one]	< 0.1	> 1	> 1	≤ 0.1	2.51 to 5	> 7.5	> 7.5	1.01 to 1.3	1.01 to 1.3	1.01 to 1.3	> 0.201	> 0.201	< 0.1
CC(c1cc2c(c(C(F)(F)F)c1)CN(c1cccc([C@H](C)Cc3nncn3C)c1)C2=O)N1CC[C@H](O)C1 (stereo partly drawn) [Compound 416, 6-(1-((S)-3-hydroxypyrrolidin-1-yl)ethyl)-2-(3-((R)-1-(4-methyl-4H-1,2,4-triazol-3-yl)propan-2-yl)phenyl)-4-(trifluoromethyl)isoindolin-1-one]	< 0.1	> 1	> 1	≤ 0.1	2.51 to 5	> 7.5	> 7.5	1.31 to 1.5	1.31 to 1.5	1.51 to 1.75	0.151 to 0.2	> 0.201	< 0.1
C[C@H](Cc1nncn1C)c1cccc(N2Cc3c(cc(CN4CC(O)C(F)(F)C4)cc3C(F)(F)F)C2=O)c1 (stereo partly drawn) [Compound 417, 6-((3,3-difluoro-4-hydroxypyrrolidin-1-yl)methyl)-2-(3-((R)-1-(4-methyl-4H-1,2,4-triazol-3-yl)propan-2-yl)phenyl)-4-(trifluoromethyl)isoindolin-1-one]	< 0.1	> 1	> 1	≤ 0.1	2.51 to 5	5 to 7.5	> 7.5	1.01 to 1.3	1.31 to 1.5	1.31 to 1.5	0.101 to 0.15	> 0.201	< 0.1
